In patent publication US9163032B2, “Esters of DCPLA and methods of treatment using the same” (Blanchette Rockefeller Neurosciences Institute, priority 2011, dated 2015):

Legend:
[1] = tested on: Wistar rats; assay: Visible platform test (sensorimotor activity and escape motivation); assay type: in vivo, rat; settings: oral DCPLA-ME 5.3 or 16.0 mg/kg
Description: Water maze spatial learning and memory task (2 training trials/day for 4 days) was used to evaluate effects of oral DCPLA-ME on learning and memory in rats. A visible platform test was conducted after the end of the experiments to evaluate whether the treatment might result in an altered sensorimotor activity and escape motivation.
At the end of the experiments, the rats were also tested in a visible platform test to evaluate whether the treatment might result in an altered sensorimotor activity and escape motivation.

[2] = tested on: Phosphatidylserine (C2) Binding Site; assay: 3H-DCPLA-ME binding to rat brain slices with C1 and C2 competitors (film-autoradiography)
Description: To determine the binding site of DCPLA-ME, ^3H-DCPLA-ME was incubated with rat brain slices in the absence and presence of known C1 and C2 competitors. More specifically, rat brain sections were fixed with formaldehyde, sliced, and incubated with (1)^3H-DCPLA-ME alone; (2)^3H-DCPLA-ME with DCPLA; (3)^3H-DCPLA-ME with Phorbol ester; or (4)^3H-DCPLA-ME and Bryostatin 1. After incubation, the slices were washed with a buffer made of 130 mM NaCl, 5 mM MgCl, 5 mM KCl, 1 mM EGTA, and 0.1% bovine serum albumin in 10 mM HEPES-NaOH, pH 7.4, dried, and analyzed with film-autoradiography.

## CCCCCC1CC1CC1CC1CCCCCCCC(=O)OC (stereo not shown) [DCPLA-ME, DCPLA methyl ester]
[1]
  sensorimotor ability and escape motivation: did not affect rats' sensorimotor ability and motivation for an escape
[2]
  binding site: phosphatidylserine (C2) site
[2]; 30 nM competitor, rat brain slices
  3H-DCPLA-ME binding, 30 nM competitor: 64%
[2]; 1 μM competitor, rat brain slices
  3H-DCPLA-ME binding, 1 μM competitor: 37%
